The target of the data set is T1, GAL4 DBD (1-147)-CfEcR(DEF)/VP16AD-βRXREF-LmUSPEF (Choristoneura fumiferana, UniProt O77240).
T1 sequence (O77240 191-513): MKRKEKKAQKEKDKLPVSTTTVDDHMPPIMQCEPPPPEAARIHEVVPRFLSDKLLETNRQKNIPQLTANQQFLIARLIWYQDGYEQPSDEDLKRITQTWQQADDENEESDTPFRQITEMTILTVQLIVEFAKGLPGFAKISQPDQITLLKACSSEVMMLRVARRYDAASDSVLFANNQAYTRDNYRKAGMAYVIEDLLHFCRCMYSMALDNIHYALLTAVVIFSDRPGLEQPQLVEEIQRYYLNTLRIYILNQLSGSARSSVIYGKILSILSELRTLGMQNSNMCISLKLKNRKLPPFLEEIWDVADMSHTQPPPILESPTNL
T1 sequence (P28702 296-455 partner limits assumed): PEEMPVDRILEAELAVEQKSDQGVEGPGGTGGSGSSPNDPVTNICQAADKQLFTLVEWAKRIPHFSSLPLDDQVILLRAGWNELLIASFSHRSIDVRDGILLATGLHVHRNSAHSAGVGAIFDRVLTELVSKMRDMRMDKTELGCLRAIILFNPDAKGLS
The data set can be described thus: 27-63 assay: luciferase reporter gene expression in stable CHO cell clone 27-63. To be noted: for 27-63 Rel Max FI: maximum fold induction at any concentration relative to that of GS-E ligand; for CC50: read-out: 27-63 LC50, average, dose response, three-parameter logistic model; for Fold Induction Average, 27-63 Assay (33 μM): single dose 33 μM, RLU ligand treated / RLU DMSO treated cells; for fold induction at 33 µM: CHO, read-out: Fold Induction Average, 27-63 Assay (33 μM). Put shortly:
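CHO clone stably expressing GAL4 DBD-CfEcR(DEF) and VP16AD-HsRXRβ/LmUSP EF chimera plus a 5XGAL4RE-luciferase reporter; ligands given at 8 concentrations (33 μM to 0.01 μM), luminescence read 48 h after treatment. Fold induction versus DMSO cells; BC50 from three-parameter logistic fit.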
Background: Reporter assays use an easily measured gene product as a stand-in for the process of interest.

With `COC(=O)CN1CCCC(NC(=O)c2cccc(OC)c2C)(C(=O)c2cc(C)cc(C)c2)C1` (racemic) [Example 156], the “27-63 Rel Max FI” value is 0.00; the CC50 is > 33 µM; the “Fold Induction Average, 27-63 Assay (33 μM)” value is recorded as 3.
As to `COc1cccc(C(=O)C2(NC(=O)c3cccc(OC)c3C)CCCCC2)c1` [Example 4], the “27-63 Rel Max FI” value was found to be 1.06 and the CC50 was found to be 4.28 µM.
In the case of `COc1cccc(C(=O)NC2(C(=O)c3cccc(C)c3)CCCCC2)c1C` [Example 7], the “27-63 Rel Max FI” value was 0.77 and the CC50 is 3.52 µM.
The matching figures for `COc1cccc(C(=O)NC2(C(=O)c3cc(C)cc(C)c3)CCCC2)c1C` [Example 10]: 0.86 and 1.91 µM.
As for `COc1cccc(C(=O)NC2(C(=O)c3cc(C)cc(C)c3)CCCCC2)c1C` [Example 11], the “27-63 Rel Max FI” value amounted to 0.97 and the CC50 came to 1.43 µM.
`COc1cccc(C(=O)NC(C)(Cc2ccccc2)C(=O)c2cc(C)cc(C)c2)c1C` (stereo not shown) [Example 12]: the “27-63 Rel Max FI” value is listed as 0.00 and the CC50 is > 33 µM.
As to `COc1cccc(C(=O)NC2(C(=O)c3cc(C)cc(C)c3)CC2)c1C` [Example 13], the “27-63 Rel Max FI” value is on record as 0.09 and the CC50 is > 33 µM.
On to `COc1cccc(C(=O)NC2(C(=O)c3cc(C)cc(C)c3)CCC2)c1C` [Example 14], for which the “27-63 Rel Max FI” value is reported as 0.89 and the CC50 was ~10 µM.
On to `COc1cccc(C(=O)NC2(C(=O)c3ccc(C)cc3)CCCCC2)c1C` [Example 15], for which the “27-63 Rel Max FI” value turned out to be 0.87 and the CC50 was 6.18 µM.
As to `COc1cccc(C(=O)NC2(C(=O)c3ccc(F)c(C)c3)CCCC2)c1C` [Example 17], the “27-63 Rel Max FI” value stood at 0.40 and the CC50 is ~5.5 µM.
On to `COc1cccc(C(=O)NC2(C(=O)c3ccc(F)c(C)c3)CCCCC2)c1C` [Example 18], for which the “27-63 Rel Max FI” value worked out at 0.53 and the CC50 came out at 3.27 µM.
As to `COc1cccc(C(=O)NC(C)(C(=O)c2cc(C)cc(C)c2)C(C)C)c1C` (stereo not shown) [Example 20], the “27-63 Rel Max FI” value turned out to be 0.71 and the CC50 came to 2.56 µM.
The matching figures for `CCc1c(OC)cccc1C(=O)NC1(C(=O)c2ccccc2)CCCC1` [Example 21]: 0.09 and > 33 µM.
On to `CCc1c(C(=O)NC2(C(=O)c3ccccc3)CCCC2)ccc2c1OCCO2` [Example 22], for which the “27-63 Rel Max FI” value is 0.60 and the CC50 is 10.8 µM.
Consider `COc1cccc(C(=O)NC2(C(=O)c3cccc(C)c3)CCOCC2)c1C` [Example 25], for which the “27-63 Rel Max FI” value is reported as 0.00 and the CC50 was > 33 µM.
`COc1cccc(C(=O)NC2(C(=O)c3cccc(C)c3)CCSCC2)c1C` [Example 26]: the “27-63 Rel Max FI” value was determined as 0.83 and the CC50 came out at 11 µM.
As for `COc1cccc(C(=O)NC2(C(=O)c3cc(C)cc(C)c3)CCOCC2)c1C` [Example 27], the fold induction at 33 µM was determined as 2740, the “27-63 Rel Max FI” value was 0.96 and the CC50 worked out at 10 µM.
For the molecule `COc1cccc(C(=O)NC2(C(=O)c3cc(C)cc(C)c3)CCSCC2)c1C` [Example 28], the “27-63 Rel Max FI” value is 0.85 and the CC50 was determined as 1.8 µM.
With `COc1cccc(C(=O)NC2(C(=O)c3cc(C)cc(C)c3)CCC3(CC2)OCCO3)c1C` [Example 29], the “27-63 Rel Max FI” value is given as 0.00 and the CC50 is > 33 µM.
Taken in the same sequence, the figures for `COc1ccccc1C(=O)C(C)(NC(=O)c1cccc(OC)c1C)C(C)C` (stereo not shown) [Example 30] were 0.03 and > 33 µM.
Taken in the same sequence, the figures for `COc1cccc(C(=O)NC(C)(C(=O)c2cccc(C)c2)C(C)C)c1C` (stereo not shown) [Example 31] were 0.61 and ~15 µM.
As for `COc1cccc(C(=O)C(C)(NC(=O)c2cccc(OC)c2C)C(C)C)c1` (stereo not shown) [Example 32], the “27-63 Rel Max FI” value was 0.01 and the CC50 was > 33 µM.
The matching figures for `COc1cccc(C(=O)NC(C)(C(=O)c2ccc(C)cc2)C(C)C)c1C` (stereo not shown) [Example 33]: 0.00 and > 33 µM.
Consider `COc1cccc(C(=O)NC(C)(C(=O)c2ccccc2)C(C)C)c1C` (stereo not shown) [Example 34], for which the “27-63 Rel Max FI” value stood at 0.00 and the CC50 is > 33 µM.
`CCC(CC)(NC(=O)c1cccc(OC)c1C)C(=O)c1ccccc1OC` [Example 37]: the “27-63 Rel Max FI” value was determined as 0.81 and the CC50 is ~18 µM.
For `CCC(CC)(NC(=O)c1cccc(OC)c1C)C(=O)c1ccc(F)cc1` [Example 38], the “27-63 Rel Max FI” value was 0.00 and the CC50 was > 33 µM.
As for `COc1ccccc1C(=O)C1(NC(=O)c2cccc(OC)c2C)CCCC1` [Example 40], the “27-63 Rel Max FI” value stood at 0.67 and the CC50 was determined as 6.61 µM.
Consider `COc1cccc(C(=O)NC2(C(=O)c3ccc(F)cc3)CCCC2)c1C` [Example 42], for which the “27-63 Rel Max FI” value was 0.01 and the CC50 is > 33 µM.
Taken in the same sequence, the figures for `COc1cccc(C(=O)NC2(C(=O)c3ccccc3C)CCCCC2)c1C` [Example 44] were 0.07 and > 33 µM.
Consider `COc1ccccc1C(=O)C1(NC(=O)c2cccc(OC)c2C)CCCCC1` [Example 45], for which the “27-63 Rel Max FI” value is recorded as 0.71 and the CC50 came out at 1.03 µM.
Consider `COc1ccc(C(=O)C2(NC(=O)c3cccc(OC)c3C)CCCCC2)cc1` [Example 46], for which the fold induction at 33 µM was found to be 5, the “27-63 Rel Max FI” value worked out at 0.00 and the CC50 was > 33 µM.
As to `CCC(CC)(NC(=O)c1cccc(OC)c1C)C(=O)c1cccc(C)c1` [Example 48], the “27-63 Rel Max FI” value is given as 0.11 and the CC50 is > 33 µM.
`CCC(CC)(NC(=O)c1cccc(OC)c1C)C(=O)c1cccc(OC)c1` [Example 49]: the “27-63 Rel Max FI” value was determined as 0.00 and the CC50 was > 33 µM.
Consider `CCC(CC)(NC(=O)c1cccc(OC)c1C)C(=O)c1ccc(F)c(C)c1` [Example 50], for which the “27-63 Rel Max FI” value turned out to be 0.00 and the CC50 was > 33 µM.
The matching figures for `CCC(CC)(NC(=O)c1cccc(OC)c1C)C(=O)c1cc(C)cc(C)c1` [Example 51]: 0.54 and 6.23 µM.
With `COc1cccc(C(=O)NC(C)(CC(C)C)C(=O)c2cccc(C)c2)c1C` (stereo not shown) [Example 52], the “27-63 Rel Max FI” value worked out at 0.04 and the CC50 is ~12 µM.
On to `COc1cccc(C(=O)C(C)(CC(C)C)NC(=O)c2cccc(OC)c2C)c1` (stereo not shown) [Example 53], for which the “27-63 Rel Max FI” value turned out to be 0.00 and the CC50 was > 33 µM.
Turning to `COc1cccc(C(=O)NC(C)(CC(C)C)C(=O)c2cc(C)cc(C)c2)c1C` (stereo not shown) [Example 55], the “27-63 Rel Max FI” value is listed as 0.62 and the CC50 worked out at 3.85 µM.
Taken in the same sequence, the figures for `COc1cccc(C(=O)NC2(C(=O)c3ccc(F)cc3)CCCCC2)c1C` [Example 60] were 0.35 and ~9 µM.
As to `COc1cccc(C(=O)NC2(C(=O)c3cc(C)cc(C)c3)CCS(=O)(=O)CC2)c1C` [Example 62], the fold induction at 33 µM worked out at 224, the “27-63 Rel Max FI” value was 0.04 and the CC50 is ~30 µM.
As for `COc1cccc(C(=O)NC(C)(C(=O)c2ccccc2C)C(C)C)c1C` (stereo not shown) [Example 63], the “27-63 Rel Max FI” value worked out at 0.68 and the CC50 was found to be 27.2 µM.
`COc1ccc(C(=O)C2(NC(=O)c3cccc(OC)c3C)CCCCC2)c(OC)n1` [Example 64]: the “27-63 Rel Max FI” value was determined as 0.82 and the CC50 was 3.12 µM.
Taken in the same sequence, the figures for `COc1cc(C(=O)C2(NC(=O)c3cccc(OC)c3C)CCCC2)cc(OC)c1C` [Example 65] were 0.28 and > 20 µM.
For the molecule `COc1cc(C(=O)C2(NC(=O)c3cccc(OC)c3C)CCCCC2)cc(OC)c1C` [Example 66], the “27-63 Rel Max FI” value is 0.76 and the CC50 was determined as 14.5 µM.
The matching figures for `COc1cccc(C(=O)NC2(C(=O)c3cc(F)c(F)c(OC)c3)CCCC2)c1C` [Example 67]: 0.77 and 6.59 µM.
As to `COc1cccc(C(=O)NC2(C(=O)c3cc(F)c(F)c(OC)c3)CCCCC2)c1C` [Example 68], the “27-63 Rel Max FI” value was 0.98 and the CC50 is 3.7 µM.
`COc1cccc(C(=O)NC2(C(=O)c3ccccc3)CCCCC2)c1C` [Example 69]: the “27-63 Rel Max FI” value stood at 0.84 and the CC50 was found to be 14.4 µM.
Consider `COc1cccc(C(=O)NC(C)(C)C(=O)c2ccccc2)c1C` [Example 76], for which the “27-63 Rel Max FI” value was found to be 0.00 and the CC50 was > 33 µM.
`COc1cccc(C(=O)C(C)(C)NC(=O)c2ccccc2OC)c1` [Example 117]: the “Fold Induction Average, 27-63 Assay (33 μM)” value came to 1.
`CCCCC(=O)C1(NC(=O)c2cccc(OC)c2C)CCCCC1` [Example 120]: the “27-63 Rel Max FI” value stood at 0.65 and the CC50 stood at 9.05 µM.

These data come from US8129355B2, “Ketone ligands for modulating the expression of exogenous genes via an ecdysone receptor complex” (priority 2002, dated 2012).
